Assay results as given in PMC10380841, “Synthesis, Characterization and Cytotoxic Evaluation of New Pyrrolo[1,2-b]pyridazines Obtained via Mesoionic Oxazolo-Pyridazinones” (International Journal of Molecular Sciences, 2023).
Entries after “also recorded” stand apart in the source; their conditions may differ. Where two headings read alike, the source gives them in different places.

Assays:
[1] = system: LoVo colon adenocarcinoma cells; assay: MTS cytotoxicity assay, LoVo; type: cell-based, human
Experimental: (§1) Therefore, the precursor acids 2a–c and corresponding pyrrolo[1,2-b]pyridazines 5a–c,f were tested for their potential cytotoxic activity. During the assays, increasing concentrations of the compounds, ranging from […], were added for 24 h or 48 h to cancer LoVo, SK-OV-3, MCF-7, and the reference HUVEC cells, previously cultured for 24 h in 96-well flat bottom plates. […] Then, MTS reagent was added, and cells were incubated for 4 h at 37 °C in a 5% CO2 humidified atmosphere. The absorbance values were spectrophotometrically read to a Dynex ELISA reader at λ = […].
(§2) For the evaluation of the in vitro potential anti-proliferative effects of treatments with the new compounds under study against solid tumor-derived cells, several compound-mediated cytotoxicity assays were performed on three adherent tumor standardized cell lines, and normal human endothelial cells, used as control: the MCF-7 human breast adenocarcinoma and SK-OV-3 human ovary adenocarcinoma cell lines were provided from European Collection of Authenticated Cell Cultures (ECACC), while LoVo, human colorectal adenocarcinoma cell line, and HUVEC human umbilical vein endothelial cells were purchased from American Type Culture Collection (ATCC).
(§3) Adherent cells were cultivated in DMEM/F12 medium added with 2 mM L-glutamine and 10% fetal bovine serum, 100 units/mL penicillin, 100 µg/mL streptomycin (Sigma Aldrich, St. Louis, MO, USA) and incubated at 37 °C in 5% CO2 humidified atmosphere. The stock solutions for cell treatments were prepared by dissolving the synthesized compounds in a minimum amount of DMSO. Working dilutions were prepared from the stock solutions in culture medium before each treatment assay. After 24 h, when cell cultures achieved around 70% confluence, treatments were applied for various periods of time with different concentrations of synthesized compounds or oncolytic drugs, used as positive controls.
(§4) Therefore, cell cultures treated with the new compounds or oncolytic drugs for 24 h or 48 h were further subjected to a colorimetric cell viability method, the MTS assay. The absorbance of probes was read, data were calculated, and percentages of cell viability were assessed.
(§5) The evaluation of the compound-induced cytotoxicity was made using the CellTiter 96 Aqueous One Solution Cell Proliferation Assay (Promega, Madison, WI, USA), a reagent that contains both MTS (3-(4,5-dimethylthiazol-2-yl)-5-(3-carboxymethoxyphenyl)-2-(4-sulfophenyl)-2H-tetrazolium, inner salt) and PES ([…], a cationic dye with high chemical stability that binds to MTS and forms a stable solution).
(§6) Briefly, 1.5 × 10^4 cancer or normal cells were cultured in 100 µL/well for 24 h. After the culture supernatants were discarded, cells were treated for additional 24 h or 48 h with increasing concentrations of new compounds or oncolytic drugs. Following the specific treatments, in each well a volume of 20 µL of coloring mixture reagent of MTS and PES was added, and then the plates were incubated with mild agitation every 20 min for 4 h at 37 °C. The color developed during incubation was spectrophotometrically quantified at λ = 492 nm using a Dynex ELISA reader (DYNEX Technologies—MRS, Chantilly, VA, USA).
(§7) Data were expressed as percentages of cell viability of the treated cells, and were calculated and compared to the untreated cells (considered 100% viable), using the formula:Cell viability (%) = (T − B)/(U − B) × 100 where T = absorbance of treated cells, U = absorbance of untreated cells, and B = absorbance of culture medium (blank), for λ = 492 nm.
(§8) The cell viability data were expressed as the mean values ± standard deviations (SD) of three different experiments (n = 3). […] Moreover, a parallel experiment was performed in the absence of cells, with all the concentrations of the compounds being tested for their potential interference with MTS reagents; then, their absorbance values were extracted during calculations.

[2] = system: SK-OV-3 ovary adenocarcinoma cells; assay: MTS cytotoxicity assay, SK-OV-3; type: cell-based, human
Experimental: as §1, §2, §3, §4, §5, §6, §7, §8

[3] = system: LoVo colon adenocarcinoma cells; assay: MTS cytotoxicity assay, LoVo; type: cell-based; conditions: Homo sapiens, read-out: cell viability
[4] = system: Triticum vulgare root tips; assay: Microscopic examination of Triticum root tips (mitotic film changes); type: in vivo; conditions: 24 h contact
Experimental: Microscopic examination of Triticum vulgare root tips followed the mitotic film changes induced by the tested compounds. Observations were made after 24 h of contact of the caryopses with the test solutions. The study was made in comparison with DMSO control maintained under the same conditions as the samples. To obtain microscopic preparations, sectioning of wheat embryonic roots was carried out at about 5 mm from the tip and stained with dilute […] according to the La Cour procedure. The examination was conducted on a Euromex oxion series 110–240 V/50–60 Hz microscope with digital camera CEMEX 5 DC 5000 C and 40× and 100× lenses with cedar oil immersion (Sigma-Aldrich St. Louis, MO, USA).

Daphnia magna Straus = assay: Daphnia magna toxicity assay; type: in vivo; conditions: for toxicity on Daphnia magna / L% values (lethality): 48 h; for L% values (lethality): all tested concentrations
Experimental: (§9) Young organisms of Daphnia magna were selected according to their size from a parthenogenetic culture maintained in an artificial medium for 24 h before the bioassay. The determination was conducted in tissue culture plates with 12 wells (Greiner Bio-One, Monroe, NC, USA), with 10 organisms in each well, and a final volume of 3 mL per sample [65, 66]. As a negative control, DMSO was used at a concentration of 1%. All compounds were tested at six different concentration levels, ranging from 12.5 to 500 μg/mL. All assessments were performed in duplicate.

[5] = system: MCF-7 breast adenocarcinoma cells; assay: MTS cytotoxicity assay, MCF-7; type: cell-based, human; conditions: Homo sapiens, MCF7; for IC50: MCF-7, 48 h, read-out: IC50 MCF-7 48 h; for viability at 400 µM: MCF-7, 400 μM, 48 h, read-out: cell viability
Experimental: as §1, §2, §3, §4
as §5, with “solution). The assay is based on the ability of the metabolically active cells to reduce the yellow tetrazolium salt MTS to a compound that is soluble in culture medium, the colored formazan, followed by the spectrophotometric evaluation of its concentration.” for “solution).”
as §6, §7
The cell viability data were expressed as the mean values ± standard deviations (SD) of three different experiments (n = 3). […]

Triticum aestivum L. = assay: Triticum test, phytotoxicity (main root length); type: in vivo; conditions: Triticum aestivum, 72 h; Triticum root length, 10–1000 µM, measured over three days
Experimental: Phytobiological testing (Triticum test) was performed by the Constantinescu method which consists in determining the maximum active dilution of a compound. Depending on the duration of action, it can influence root elongation and the […] film. […] Embryonic wheat roots were obtained by germinating homogeneous wheat caryopses in Linhart pots. Then the caryopses with a main root length of 1 cm were placed in the test solutions. For the determination of the action of each compound, five dilutions in the concentration range of 10–1000 µM were obtained and 11 caryopses were placed in them. Petri dishes containing 15 mL of diluted solution were kept under constant conditions of temperature (25 °C), and humidity (60%), in the absence of light. […] The results were expressed in comparison with a 1% DMSO control.
Statistical analyses were performed using the computing and programming environment R, R, v. 4.2.1 [68], under Rstudio, v. 2022.07.2+576 “Spotted Wakerobin” for Windows (RStudio, PBC, Boston, 2022), both for the Triticum and Artemia tests. It used a parametric mixed-effects model (R package “lme4”) and a robust mixed-effects model (R package “robustlmm”), in which root length measurements (Triticum) from all three days were used as the dependent variable, whereas compound, concentration and time were treated as fixed effects, with time (day of measurement) also treated as a random effect. Assessing statistical significance for mixed-effects statistical models is controversial and complex, but as a pragmatic way of working, we have estimated p-values using the Kenward–Rogers approximation (R package “sjPlot”). A variety of R base functions and R packages were used to diagnose the regression models (“car” [72], “MASS” [73], and “gvlma” [74]). Mixed boxplot–dotplot plots were generated using the “ggplot2” package.
The “drc” R package was used to estimate IC50 values for the Triticum bioassay by nonlinear modeling. For Triticum, the relationship between root length and concentration was modeled using Weibull functions with 2, 3, or 4 parameters, depending on the data distribution, the models being selected from a range of several models with different functions and parameters, based on the Akaike’s information criterion (AIC).

[6] = system: SK-OV-3 ovary adenocarcinoma cells; assay: MTS cytotoxicity assay, SK-OV-3; type: cell-based; conditions: Homo sapiens; SK-OV-3, 400 μM, 24 h; read-out: cell viability
[7] = Daphnia magna toxicity assay; type: in vivo; conditions: Daphnia magna, in vivo; 48 h
Experimental: as §9

[8] = Homo sapiens, 24 h, read-out: IC50 LoVo 24 h
[9] = Homo sapiens, 48 h, read-out: IC50 LoVo 48 h
[10] = Homo sapiens, SK-OV-3, 24 h, read-out: IC50 Sk-OV-3 24 h
[11] = Homo sapiens, SK-OV-3, 48 h, read-out: IC50 Sk-OV-3 48 h

Row | SMILES | viability at 400 µM ([3]; 24 h) [%] | viability at 400 µM ([3]; 48 h) [%] | mitotic film / cell changes in root tips ([4]; 1000 μM) | toxicity on Daphnia magna (Daphnia magna Straus) | L% values (lethality) (Daphnia magna Straus) | IC50 [5] [µM] | IC50 [1, 8] [µM] | IC50 [1, 9] [µM] | IC50 [2, 10] [µM] | IC50 [2, 11] [µM] | IC50 (Triticum aestivum L.) [µM] | viability at 400 µM [6] [%] | viability at 100 µM ([3]; 48 h) [%] | LC50 at 48 h [7] [µM] | viability at 400 µM [5] [%] | also measured
1 | N.N.[Cl][Pt][Cl] [CisPt, cisplatin, reference compound] |  |  |  |  |  |  |  |  |  |  |  |  |  |  |  | IC50 ([1]; 24 h, read-out: IC50 LoVo 24 h): 79.1 ± 4.75 µM; IC50 ([1]; 48 h, read-out: IC50 LoVo 48 h): 57 ± 0.95 µM; IC50 ([2]; SK-OV-3, 24 h, read-out: IC50 Sk-OV-3 24 h): 92.2 ± 3.45 µM; IC50 ([2]; SK-OV-3, 48 h, read-out: IC50 Sk-OV-3 48 h): 78.2 ± 4.01 µM
2 | CCC(C(=O)O)n1nc(-c2ccc(F)cc2)ccc1=O (centres unmarked) [Compound 2b, 2-[6-Oxo-3-(4-fluorophenyl)pyridazin-1-yl]butanoic acid] | 91 | 81.1 | Mitoinhibition and cells with 1-3 nucleoli | no toxicity | ND * (all L% values were lower than 30%) | ≥ 400 | ≥ 400 | ≥ 400 | ≥ 400 | ≥ 400 | 204 |  |  |  |  | 
3 | CCC(C(=O)O)n1nc(-c2ccc(Cl)cc2)ccc1=O (centres unmarked) [Compound 2c, 2-[6-Oxo-3-(4-chlorophenyl)pyridazin-1-yl]butanoic acid] | 78.2 | 48.1 | disorganized metaphase | no toxicity | ND * (all L% values were lower than 30%) |  | ≥ 400 | 367 ± 3.7 | ≥ 400 | ≥ 400 | 553 | 88.3 |  |  |  | 
4 | CCc1cc(C(=O)OC)c2ccc(-c3ccccc3)nn12 [Compound 5a, Methyl 7-ethyl-2-phenylpyrrolo[1,2-b]pyridazine-5-carboxylate] | 63.5 | 48.5 | telophase with delayed chromosome, wavy cell walls; also recorded: no mitoinhibitory effect |  |  |  | ≥ 400 | 304 ± 4.85 |  |  |  |  | 58.2 | 46.1 |  | viability at 50 µM ([3]; 24 h): 79%; viability at 50 µM ([3]; 48 h): 65.3%; viability at 100 µM ([3]; 24 h): 78.1%; viability at 200 µM ([3]; 200 μM, 48 h): 52.5%; mitotic film / cell changes in root tips ([4]; 100 µM): bridged telophase, disorganized metaphase; maximum lethality (L%) (Daphnia magna Straus; 24 h): 40%
5 | CCc1cc(C(=O)OC)c2ccc(-c3ccc(F)cc3)nn12 [Compound 5b, Methyl 7-ethyl-2-(4-fluorophenyl)pyrrolo[1,2-b]pyridazine-5-carboxylate] | 87.8 | 60.3 | telophase in tropokinesis, normal, or disorganized metaphase | moderate toxicity |  | ≥ 400 | ≥ 400 | ≥ 400 | ≥ 400 | ≥ 400 |  | 78 | 79.4 | 463 | 89.7 | 
6 | CCc1cc(C(=O)OC)c2ccc(-c3ccc(Cl)cc3)nn12 [Compound 5c, Methyl 2-(4-chlorophenyl)-7-ethylpyrrolo[1,2-b]pyridazine-5-carboxylate] | 68.6 | 61.1 |  |  | ND ** (all L% values were in range of 30 to 70%, independent of concentration) | ≥ 400 | ≥ 400 | ≥ 400 | ≥ 400 | ≥ 400 |  |  |  | ~107 | 88.5 | 
